Test system: M. tuberculosis
Assay: MIC alone and in combination (synergy test)
Format: cell-based, Mycobacterium tuberculosis
Details: for change of MIC when tested together: combination of Ethambutol and Isoniazid (negative control, FIG. 2)
Procedure: A sulfonylurea ALS inhibitor and a triazolopyrimidine ALS inhibitor were tested alone and in combination with Rifampicin. The positive controls used were Isoniazid and Streptomycin where one finds a synergistic action. The individual MICs of Isoniazid (INH) and Streptomycin (Strep) are 0.03 and 1.0 μg/ml respectively. When used in combination, these values drop to 0.0075 and 0.12 μg/ml respectively (cf. FIG. 1). This is 4 fold and 8 fold less.
The negative control used was a combination of Ethambutol (Etham) and Isoniazid (Inh) where there is no synergistic activity. […] In. Clinical Microbiology Procedures Handbook; Vol. 1-2 by Isenberg, Henry. D. Ed Washington D.C.; American Society for Microbiology/1992; Pages 5.18.1 to 5.18.28).
When used in combination, these MICs drop 0.0038 and 0.03 ug/ml respectively, which is 8-fold less for both the drugs.
When used in combination, these MICs drop to 0.0038 & 0.03 ug/ml which is 4 & 8-fold less for both the drugs.

[1] = combination of Isoniazid and Streptomycin versus individual MIC

Row | Structure (SMILES) | fold less MIC in combination (combination of Rifampicin and SU versus individual MIC) [fold] | fold less MIC in combination (combination of Rifampicin and TP versus individual MIC) [fold] | change of MIC when tested together | fold less MIC in combination [1] [fold]
1 | CO[C@H]1/C=C/O[C@@]2(C)Oc3c(C)c(O)c4c(O)c(c(/C=N/N5CCN(C)CC5)c(O)c4c3C2=O)NC(=O)/C(C)=C\C=C\[C@H](C)[C@H](O)[C@@H](C)[C@@H](O)[C@@H](C)[C@H](OC(C)=O)[C@@H]1C [Rifampicin] | 8 | 4 | – | –
2 | CC[C@@H](CO)NCCN[C@@H](CC)CO [Ethambutol] | – | – | do not drop significantly | –
3 | [H]/N=C(/N)N[C@H]1[C@H](O)[C@@H](O)[C@H](O[C@@H]2O[C@@H](C)[C@](O)(C=O)[C@H]2O[C@@H]2O[C@@H](CO)[C@H](O)[C@@H](O)[C@@H]2NC)[C@@H](N/C(N)=N\[H])[C@@H]1O [Streptomycin] | – | – | – | 8
4 | NNC(=O)c1ccncc1 [Isoniazid] | – | – | do not drop significantly | 4

From patent publication US20090181980A1, “Synergistic Pharmaceutical Composition” (priority 2006, published 2009)
